Test results as given in patent US20210161894A1, “Compositions and Methods for Modulating Liver Endothelial Cell Fenestrations” (priority 2017, published 2021).
“Also recorded” adds a separate entry of the source.

How the values were obtained:
[1] = system: isolated LSECs (liver sinusoidal endothelial cells); experiment: SEM of fenestrations in isolated LSECs from young and old mice after 30 min drug treatment (second Example 7); type: cell-based; conditions: for Diameter / Frequency / Porosity: 30 min; for effect on porosity and fenestration frequency (summary in words): young and old LSECs
Description: 3-4 and 18-24 month old male C57/B16 mice were obtained from the Animal Resource Centre in Perth, Western Australia. Animals were housed at the ANZAC Research Institute animal house on a 12 hour light/dark cycle and provided with ad libitum access to food and water. Mice were not fasted prior to euthanasia by a single intraperitoneal injection with 100 mg/kg ketamine and 10 mg/kg xylazine in saline. The study was approved by the Animal Welfare Committee of the Sydney Local Health District and was performed in accordance with the Australian Code of Practice for the care and use of animals for scientific research (AWC 2016/009). All information provided accords with the ARRIVE guidelines.
As described previously (Cogger et al. J e52698, 2015 https://dx.doi.org/10.3791/52698), mouse LSEC isolation was performed by perfusion of the liver with collagenase. Non-parenchymal cells were removed by a two-step Percoll gradient and Kupffer cells were removed by selective adherence to plastic. LSECs (seeded at 0.5×10^6 cells/cm2) were cultured (37° C., 5% CO2) in serum free RPMI-1640 for 3.5 hours before use.
Cells were treated with various agents for 30 minutes to determine effects on fenestrations. All agents were dissolved in serum-free RPMI media. All experiments were performed in triplicate for both young and old mice. Actin was disrupted with 0.5 μg/ml cytochalasin D and lipid rafts were disrupted with 3.6 and 1.8 μg/ml 7-keocholesterol; dosages were selected. […] The serotonergic/phospholipase C pathway was promoted with DOI (0.1 μg/ml) and endothelin receptors were inhibited by bosentan (550, 55 and 5.5 ng/ml) Death receptor 4 was promoted with TRAIL (100, 10. 1, 0.1 and 0.01 ng/ml) and NAD+ was promoted with NMN (5000, 50, 10, 1 and 0.1 μg/ml).
SEM was performed as previous described (Corbin et al J Biol Chem 274: 13729-13732, 1999.). LSECs were fixed in 2.5% glutaraldehyde in 0.1M sodium cacodylate buffer, osmicated, dehydrated in graded ethanol and hexamethyl disilazane, mounted on stubs, sputter coated with platinum and examined using a JEOL 6380 Scanning Electron Microscope (JEOL Ltd, Japan). Images at 10,000× magnification were collected by a blinded observer and used to measure fenestration diameter and LSEC porosity using Image J (NIH, MD, USA). […] Fenestrations less than 30 nm and gaps more than 300 nm were excluded from analysis. Porosity was defined as the percentage of the cell membrane covered with fenestrations. Frequency was defined at the number of fenestrations per […].
Individual specifications of analyses are described in figures legends. All data are presented as mean±SD. Experimental design and analysis were performed in accordance with the APS guidelines described in Curran-Everett and Benos DJ. Adv Physiol Educ 31: 295-298, 2007.

LSEC fenestrations = experiment: SEM of LSEC fenestrations after drug treatments (Example 2, FIGS. 1-6); type: cell-based, mice; conditions: for sieve plates and fenestration density on SEM images: young and old mice; for change in fenestration diameter: Bosentan 0.1 μM, Sildenafil 300 ng/ml, TRAIL 1 μg/ml
Excerpt: Young and old C57B16 mice (n=3 young mice, age 3-4 and n=3 old mice, 20-24 months) were maintained under full SPF conditions and with ad libitum feeding. The study had the approval of the Sydney South West Area Health Service Animal Welfare Committee. Mice at 20-24 months are senescent. Animals were sacrificed withCO2 and livers immediately perfusion-fixed via a 23G needle inserted into the portal vein. Liver tissue was fixed with1% glutaraldehyde/4% para-formaldehyde in PBS (0.1M sucrose).
Drug treatments and dosages (shown superimposed on their corresponding image in FIGS. 1, and 2) were performed by incubating liver cells at 37° C., 5% CO2 for 30 mins using RPMI with or without dissolved drug. All images were taken by two blinded researchers using a SEM at 10,000×, scale bars of 1 μm are shown.
Each data point represents the average±SD of 8 images (as shown in FIGS. 1 and 2), 616-3312 fenestration raw data points were collected per treatment.

[2] = system: actin cytoskeleton of LSECs; experiment: dSTORM imaging of the actin cytoskeleton; type: cell-based; conditions: young mice
Description: dSTORM imaging was performed using an in-house microscope. LSECs were prepared for dSTORM by washing twice with PBS and fixation with 4% paraformaldehyde for 30 mins. Then LSECs were washed twice with PBS, permeabilised with Triton-X for 90 secs, blocked with 5% bovine serum albumin for 1 hour, and stained with Alexa Flour phalloidin 488 (1:40) for 20 min prior to imaging. Cells were washed using PBS with 0.1% Tween and placed in OxEA buffer (30) for dSTORM visualisation and image capture. The dSTORM used 488 and 647 nm excitation from diode-pumped lasers (Coherent Inc, CA, USA). Excitation was delivered via a 1.49NA 60× oil-immersion TIRF objective (Olympus Australia, AUS). Fluorescence was captured on two separate sCMOS cameras (Imaging Development Systems GmbH, Germany). Data was collected for up to 40,000 images at around 75 fps. 5-8 whole cell images were collected by a blinded observer for each treatment dosage and processed using rapidSTORM open source software (Wolter et al. Nat Methods 9: 1040, 2012.). Each image was examined for all sieve plates and actin structures. Densitometry measurements were performed using 5-8 dSTORM images with data analysis performed using Image J software (NIH, MD, USA).

Intracellular cGMP = experiment: Cyclic GMP ELISA; type: cell-based, mice
Description: Assays for MTT and cGMP were performed as instructed by the kit. Briefly, MTT assays were performed following drug treatments. Cells were washed with PBS and incubated with RPMI media containing […] MTT solution. Cells were incubated at 37° C. for 4 hrs and lysed with […] solubilisation solution, 30 mins colour development followed and measured at 570 nm using a spectrophotometer. cGMP assays were also performed after drug treatments. Cells were washed with PBS and lysed with 0.1M HCl. Following sample collection the sample was acetylated and prepared with kit reagents. Samples were incubated for 18 hrs at 4° C. before examination at 410 nm with a spectrophotometer.

NAD+ = conditions: cited from earlier work
[3] = old rats, 500 mg/kg; cited from earlier work
[4] = system: human umbilical vein endothelial cells; conditions: 15 mins of 1 μg/ml treatment; cited from earlier work

In the case of `NC(=O)c1ccc[n+]([C@@H]2O[C@H](COP(=O)([O-])O)[C@@H](O)[C@H]2O)c1` [NMN, nicotinamide mononucleotide], the gap formation [1] is reported as “Gap formation was apparent”, the “fenestration porosity after treatment” value ([1]; LSECs from young mice, increase from 4.6%) is reported as 8.1% and the average fenestration diameter ([1]; old mice) is reported as 132±2 nm. For the same molecule, the increase in frequency ([1]; old mice, 50 pg/ml) was 2.25 fold, the increase in porosity ([1]; old mice, 50 pg/ml) was 2.5 fold and the Diameter ([1]; old mice, 50 μg/ml) was 132.12 ± 2.28 nm. For the same molecule, the Frequency ([1]; old mice, 50 μg/ml) was 3.95 ± 1.35 no/area, the Porosity ([1]; old mice, 50 μg/ml) was 5.92 ± 1.94 % and the Diameter ([1]; old mice, 5000 μg/ml) was 139.05 ± 11.97 nm. The Frequency ([1]; old mice, 5000 μg/ml) was 3.39 ± 0.60 no/area, the Porosity ([1]; old mice, 5000 μg/ml) was 5.55 ± 1.75 % and the “effect on porosity and fenestration frequency (summary in words)” value [1] was “significant increases in porosity and fenestration frequency in both young and old LSECs”. The “dose response on fenestration porosity (words)” value ([1]; young mice) was “broad range”, the Diameter ([1]; young mice, 50 μg/ml) was 127.68 ± 8.19 nm and the Frequency ([1]; young mice, 50 μg/ml) was 4.53 ± 0.58 no/area. It also gave a Porosity ([1]; young mice, 50 μg/ml) of 6.08 ± 1.00%, a Diameter ([1]; young mice, 5000 μg/ml) of 130.48 ± 13.21 nm and a Frequency ([1]; young mice, 5000 μg/ml) of 5.53 ± 0.58 no/area. For the same molecule, the Porosity ([1]; young mice, 5000 μg/ml) was 8.05 ± 2.23 %, the “shift in frequency distribution of fenestration diameter” value ([1]; young mice, NMN 5000 μg/ml, 7-ketocholesterol 3.6 μg/ml) was “an increase in 30-100 nm and 226-500 nm fenestrations with a reduction in 126-200 nm fenestrations” and the “diameter of fenestrations observed on SEM images” value (LSEC fenestrations) was “Increased diameter of fenestrations”. The “sieve plate grouping on SEM images” value (LSEC fenestrations; old mice) was “greater fenestration sieve plate grouping”, the fenestration diameter (LSEC fenestrations; old mice, 50 μg/ml) was 133.4±0.9 nm and the fenestration frequency (LSEC fenestrations; old mice, 50 μg/ml) was 4.4±1.6 number/μm^2. For the same molecule, the fenestration porosity (LSEC fenestrations; old mice, 50 μg/ml) was 6.6±2.2%, the “peak frequency in histogram of fenestration diameter” value (LSEC fenestrations; old mice, bin range of 101-125 nm) was 24% and the “sieve plates and fenestration density on SEM images” value (LSEC fenestrations) was “promoted increased fenestration density and maintained sieve plate fenestration clustering”. The fenestration frequency (LSEC fenestrations; young mice, 5 mg/ml) was 5.9±0.1 number/μm^2, the fenestration porosity (LSEC fenestrations; young mice, 5 mg/ml) was 9.1±2.0% and the “actin changes with drug treatments (dSTORM)” value [2] was “loss of smooth fibres encircling the cytoplasm; also recorded: disordered, dense actin staining in the plasma membrane and clustering of actin within the cytoplasm; also recorded: Individual fenestrations; also recorded: Disordered actin structure; also recorded: Actin clusters; also recorded: Gap formations”. The “change of intracellular cGMP” value (Intracellular cGMP) was “no changes”, the “insulin action and secretion” value (NAD+; diet and age induced type 2 diabetic mice models, similar dosages continuously for 7 days) was “improve insulin action and secretion” and the “NAD+” value (NAD+; female mice, 15 mins after single intraperitoneal injection of 500 mg/kg) was “Elevated NAD+”. For the same molecule, the glucose tolerance [3] was “improved glucose tolerance” and the toxicity [3] was “non-toxic”.

B1: Tumor necrosis factor-related apoptosis inducing ligand (protein, UniProt P50591 1-281, looked up)
Tumor necrosis factor ligand …: MAMMEVQGGPSLGQTCVLIVIFTVLLQSLCVAVTYVYFTNELKQMQDKYSKSGIACFLKEDDSYWDPNDEESMNSPCWQVKWQLRQLVRKMILRTSEETISTVQEKQQNISPLVRERGPQRVAAHITGTRGRSNTLSSPNSKNEKALGRKINSWESSRSGHSFLSNLHLRNGELVIHEKGFYYIYSQTYFRFQEEIKENTKNDKQMVQYIYKYTSYPDPILLMKSARNSCWSKDAEYGLYSIYQGGIFELKENDRIFVSVTNEHLIDMDHEASFFGAFLVG
notes: death receptor 4/5 promoter
In the case of B1, the Diameter ([1]; old mice, 1 ng/ml) is reported as 127.50 ± 15.53 nm, the Frequency ([1]; old mice, 1 ng/ml) is reported as 1.97 ± 0.49 no/area and the Porosity ([1]; old mice, 1 ng/ml) is reported as 2.79 ± 0.14%. For the same molecule, the Diameter ([1]; old mice, 10 ng/ml) was 120.08 ± 3.74 nm, the Frequency ([1]; old mice, 10 ng/ml) was 2.13 ± 0.48 no/area and the Porosity ([1]; old mice, 10 ng/ml) was 2.85 ± 0.53%. It also gave a Diameter ([1]; old mice, 100 ng/ml) of 130.88 ± 17.00 nm, a Frequency ([1]; old mice, 100 ng/ml) of 2.03 ± 0.53 no/area and a Porosity ([1]; old mice, 100 ng/ml) of 2.97 ± 0.46%. The “effect on porosity and fenestration frequency (summary in words)” value [1] was “LSECs from young mice only demonstrated significant increases in porosity and frequency”, the “dose response on fenestration porosity (words)” value ([1]; young mice) was “did not promote greater changes in fenestration porosity or frequency; also recorded: had the greatest activity and similar maximal efficacy to NMN but was more potent; also recorded: limited dosage range for positive effects on fenestration porosity” and the “increase in fenestration frequency” value ([1]; young mice) was 40%. For the same molecule, the increase in porosity ([1]; young mice) was 60%, the Diameter ([1]; young mice, 1 ng/ml) was 137.95 ± 8.12 nm and the Frequency ([1]; young mice, 1 ng/ml) was 4.47 ± 0.43 no/area. The Porosity ([1]; young mice, 1 ng/ml) was 7.17 ± 1.49 %, the “Change in Porosity, Young” value ([1]; young mice, 10 ng/ml) was “↑ (ns)” and the Diameter ([1]; young mice, 10 ng/ml) was 140.36 ± 3.22 nm. The Frequency ([1]; young mice, 10 ng/ml) was 3.73 ± 0.46 no/area, the Porosity ([1]; young mice, 10 ng/ml) was 6.24 ± 0.52 % and the Diameter ([1]; young mice, 100 ng/ml) was 145.87 ± 6.77 nm. The Frequency ([1]; young mice, 100 ng/ml) was 3.15 ± 0.27 no/area, the Porosity ([1]; young mice, 100 ng/ml) was 5.49 ± 0.63% and the “fenestration numbers, fenestrated cell area and sieve plate formation” value ([1]; young mice, sildenafil 0.3 μg/ml, amlodipine 20 ng/ml, TRAIL 1 ng/ml) was “increased fenestration numbers and overall fenestrated cell area with some disruption to sieve plate formation”. For the same molecule, the “sieve plate grouping on SEM images” value (LSEC fenestrations; old mice) was “greater fenestration sieve plate grouping”, the fenestration porosity (LSEC fenestrations; old mice, 1 μg/ml) was 2.7±0.1% and the “change in fenestration diameter” value (LSEC fenestrations; old mice, 7KC 4.5 μM) was “No changes in diameter”. For the same molecule, the “sieve plates and fenestration density on SEM images” value (LSEC fenestrations) was “promoted increased fenestration density and maintained sieve plate fenestration clustering”, the fenestration frequency (LSEC fenestrations; young mice, 1 μg/ml) was 4.5±0.4 number/μm^2 and the fenestration porosity (LSEC fenestrations; young mice, 1 μg/ml) was 7.2±1.5%. For the same molecule, the “change in fenestration diameter” value (LSEC fenestrations; young mice) was “No changes in diameter”, the “actin changes with drug treatments (dSTORM)” value [2] was “absence of the intense actin clustering; also recorded: Disordered actin structure; also recorded: Gap formations; also recorded: Minimal actin clustering” and the “increase of intracellular cGMP” value (Intracellular cGMP; p=0.001) was 3 fold. For the same molecule, the “NOS and phosphorylated NOS” value [4] was “upregulate NOS and phosphorylated NOS”.
